# Several values for one entry are separate records, joined by “and”; a condition that tells them apart may be missing. Equal entries are not always repeated.
# Test system: MDA-MB-231
# Assay: shRNA barcode abundance ratio t_end/t_zero (depletion over 4 weeks of proliferation) (log2 ratio); higher = less depletion (weaker anti-proliferative effect of the shRNA)
# Details: time after t zero 28 days
# Outline: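 Cells of the MDA-MB-231 line were transduced with a pooled lentiviral shRNA library at an MOI of 0.3 and selected in 0.5 μg/ml puromycin, and genomic DNA was collected from three biological replicates at 5 days (t_zero) and 33 days post-infection. The barcodes were amplified by PCR, labelled with biotin and hybridised for 16 h at 45°C to Geniom One tiling arrays carrying six 25-nt probes per barcode, then detected with streptavidin phycoerythrin. For the abundance ratio, each t_end/t_zero signal ratio is normalised to the subarray median and averaged over background-filtered probes. This average is taken on a log2 scale.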
row,Sequence,shRNA barcode abundance ratio t end/t zero (log2)
1,CGAGGCAACTTGAACTCAGAA (targeted gene: IER3),0.272
2,CCAGCGATGAAGAATGTGGAA (targeted gene: CFLAR),-0.0627
3,GGCTACTATGACCAATAGAAG (targeted gene: BFAR),0.107
4,TACTGTCTTTGAGAACTATAT (targeted gene: RHOC),0.0813
5,CCGTTATGAAAGAGAAATGAA (targeted gene: HMGB1),-0.0571
6,CCAACACGTTTGAACTGAAAT (targeted gene: BIRC3),0.578
7,ACTCTAATCTCCACATTTATA (targeted gene: XIAP),0.0933
8,TCAATCAAAGGGAAACTTGAA (targeted gene: TPT1),-0.105
9,GGCTACAGCCTCGATTTATAT (targeted gene: IGFBP3),0.0568
10,ACGCTCTGTGGCCAGTGTAAA (targeted gene: SULF2),0.249
11,GGCACAACACTAATTACCATT (targeted gene: PROK2),0.0935
12,GCTCTTCCACTCAGGTGAGAA (targeted gene: LOC284939),-0.0337
13,GGCAGGTATTTGACATATTAA (targeted gene: NFKB1),0.217
14,CCTCAGATTGTTGTTGTTAAT (targeted gene: IL6),0.311
15,CCTTGGAAAGGATGAACAAAT (targeted gene: TOPORS),0.154
16,GCCTTGGAACTGATGAAGATA (targeted gene: ANXA1),0.483
17,CCTGACCTCCCTCTAATTTAT (targeted gene: IL10),0.309
18,GGACAAAGTTTACCAAATGAA (targeted gene: CASP8),0.402
19,GGCCATTCATTTAATGTGCAT (targeted gene: HBXIP),0.497
20,CCTCATGTCTTGATAAGTTAA (targeted gene: FOXO1),0.0815

row,Sequence,shRNA barcode abundance ratio t end/t zero (log2)
1,CCAGGAGAACAGTTGTTAAAT (targeted gene: HIPK3),0.228
2,CGCCAGCACCGGAGGAAGAAA (targeted gene: CDKN2A),-0.0357
3,GCGTCGTTAATTTATTTCTTA (targeted gene: IER3),0.159
4,CACCAGCACTTTATACACTTC (targeted gene: RHOC),0.652
5,GCGCCGAAATTGCAGGTTTAT (targeted gene: BIRC8),-0.37
6,GCAGTAGCCTTGATAGATTAT (targeted gene: BIRC6),-0.00928
7,GCCTGCTGAATTTATGTTGTA (targeted gene: RAB6C),-1.3
8,CCTGGGCATTCTTGTTTCAAT (targeted gene: IL1A),-0.328
9,CCAGACTCAGTTCACTGCAAA (targeted gene: MALT1),-0.00481
10,"CCGCCTCTTTGACCAGTTCTT (targeted gene: CRYAB, Cryab)",0.00542
11,GCTCAGTGAGCCCATGGAATT (targeted gene: RELA),0.332
12,GGAAGTGATCCAAATGTTAAA (targeted gene: BARD1),-2.23
13,GCTTAGAACTTTAAGCAACAA (targeted gene: TNF),-1.56
14,CCATTGCCCATCGAGATTTAA (targeted gene: ACVR1),0.196
15,CAGCTTTCAGTCAGATGTATA (targeted gene: BRAF),0.489
16,ACCCATTCTTCCCGTTCTTAA (targeted gene: HDAC1),0.135
17,GCAGTATAGAGCGTGCAGATA (targeted gene: PTEN),-0.0774
18,GCATCTTCTTCGGTGAAATAT (targeted gene: BNIP2),-0.0165
19,CCCGTATGTGTCAACACCTAT (targeted gene: CRTAC1),-0.136
20,CCATATAGTTCCTTGGGATTA (targeted gene: BCL2L2),0.203

row,Sequence,shRNA barcode abundance ratio t end/t zero (log2)
1,CCTTCCAGAGTTATGGAAATT (targeted gene: BCL2A1),0.456
2,GCCTCACCAGTCCATTATTAT (targeted gene: BIRC6),0.259
3,CCTTGCTGTTGTGAAATCTAT (targeted gene: ANXA5),-0.252
4,CCAGAATCTCTGGGAATATAA (targeted gene: BFAR),-0.109
5,CGGTTTGCTGAGGAGAAAGAA (targeted gene: AVEN),0.241
6,ACAGATATTTACTTCTGCAAA (targeted gene: CD28),0.143
7,TCCAATTAACTTCTCCATAAT (targeted gene: MTL5),0.712
8,CGAGAGAGTTTCCCTACGTAT (targeted gene: CDH1),0.249
9,CCTTCGCCAGATCACTGTTAA (targeted gene: PRDX2),0.234
10,GGCAGCTTCCTTGAACCATTA (targeted gene: SPHK1),-0.334
11,GGGTAGAAATTGGCTTCATAA (targeted gene: WRN),-0.246
12,GGTTTGTGCCTTACATTATTA (targeted gene: PSEN1),-1.92
13,GCGTCTGGCCTCCTTCTATGA (targeted gene: BIRC7),0.556
14,CAACGGAACTTGTTTGCTCTT (targeted gene: SOCS3),-0.536
15,ACCTGCAGAATAATAAAGTCA (targeted gene: S100A8),-0.295
16,GGGAATGATCAGATTCCTTTA (targeted gene: BFAR),0.171
17,CCTCACCCTGTCAGGTATCAA (targeted gene: MYBL2),-0.1
18,GCATCAGATGATTTGTCATTA (targeted gene: BIRC2),0.0467 and 0.133
19,GCGAAGAACCTTGTGTGACAA (targeted gene: BCL2),-0.0784

# Reference: the supplement of paper PMC2824726
